Experiments:
[1] = target: T1, human wt p53 (Homo sapiens, UniProt P04637); assay: yeast-based assay, yeast cells expressing human wt p53 (growth by CFU counts, cell cycle, actin Western blot)
T1 construct: expressed in transfected cells
Description: FIG. 1 illustrates that SLMP53-1 and SLMP53-2 increase the p53 effects in yeast. Yeast cells expressing human wt p53 and transformed with the empty vector (control yeast) were incubated in selective induction medium in the presence of 0.1-25 μM compound or DMSO only, for 42 hours. (A) Effect of 10 μM SLMP53-1 and SLMP53-2 on the p53-induced yeast growth inhibition. Results are plotted setting as one unit the p53-induced growth inhibition in the presence of DMSO only. Growth was estimated by colony-forming unit (CFU) counts. […] (B) Dose-response curve for SLMP53-1 in yeast cells expressing human p53 and control yeast. Cells were incubated in selective medium with 0.1-25 μM of SLMP53-1 or DMSO only. Results are plotted setting as 100% growth inhibition the number of CFU obtained in the presence of DMSO only. Data are mean±S.E.M. of three independent experiments (*P<0.05; unpaired Student's t-test). (C) Effect of SLMP53-1 and SLMP53-2 on p53-induced S-phase cell cycle arrest in yeast. Cell cycle phases were analyzed by flow cytometry using Sytox Green and quantified using ModFit LT software; quantification of cell cycle phases represent the mean values. (D) Increase of p53-induced actin protein expression levels by SLMP53-1 and SLMP53-2 in yeast expressing p53. Western Blot band intensity was quantified using Pgk1p as loading control (with Bio-Profile Bio-1D++ software).
Using a yeast-based screening approach, the chiral compounds SLMP53-1 and SLMP53-2 were identified as potential activators of wt p53, from a chemical library of tryptophanol-derived oxazoloisoindolinones with general formula (I) shown in FIG. 1, wherein X, R^1, R^2, R^3, R^4, R^5, R^6, R^7, R^8, R^9 and R^10 are as defined herein, as well as their stereoisomers, enantiomers, ra.cemates, tautomers thereof or mixtures thereof; or a pharmaceutically acceptable salt, solvate or prodrug thereof. In the yeast cell model, compounds SLMP53-1 and SLMP53-2 increased the previously reported (Coutinho et al. FEBS Lett. 2009, 583, 3582-3588) p53-induced growth inhibition (FIGS. 1A and B) and S-phase cell cycle arrest (FIG. 1C).

[2] = Rippin et al. 2002; Jonhson et al. 2011; cited from earlier work
[3] = test system: HCT116 p53^+/+ cells; assay: cell cycle analysis by flow cytometry (propidium iodide), HCT116 p53^+/+; format: cell-based, human; settings: double GI50, 24 hours
Description: FIG. 3 illustrates the effect of SLMP53-1 on cell cycle progression of HCT116 p53^+/+ cells. Cell cycle phases were analyzed by flow cytometry using propidium iodide and quantified using ModFit LT software (Verity Software House Inc., Topsham, USA). Effect of compounds (double GI50) was analyzed after 24 hours treatment. Histograms represent one of two independent experiments; quantification of cell cycle phases represents the mean±S.E.M. of two independent experiments.

[4] = test system: HCT116 p53^+/+; assay: SRB growth inhibition assay in HCT116 p53^+/+ colon carcinoma cells; format: cell-based, human; settings: for GI50: HCT116 p53^+/+, 48 hours incubation, SRB, mean±S.E.M.
Description: (§1) Tumor cells were plated at 5.0×10^3 cells/well in 96-well plates and incubated for 24 hours. Cells were then exposed to serial dilutions of SLMP53-1, CP-31398 or PRIMA-1 (from 1.85 to 150 μM). The effect of the compounds was analyzed following 48 hours incubation, using the sulforhodamine B (SRB) assay. The solvent DMSO corresponding to the maximum concentration used in these assays (0.025%) was included as control. The GI50 value, the concentration of compound that causes 50% growth inhibition, was calculated for the tested compounds. Results are the mean±S.E.M. of three independent experiments.

[5] = test system: MDA-MB-231 (p53R280K); assay: SRB growth inhibition assay in MDA-MB-231 breast cancer cells; format: cell-based, human; settings: 48 hours incubation, mean±S.E.M.
Description: as §1, with “7.5×10^3” for “5.0×10^3”, “incubation period,” for “incubation,”, “value, which is” for “value,”

[6] = test system: MDA-MB-231 cells; assay: apoptosis by flow cytometry (FITC-Annexin V and propidium iodide), MDA-MB-231; format: cell-based, human; settings: GI50, 24 hours
Description: (§2) Apoptosis was analyzed by flow cytometry using FITC-Annexin V and propidium iodide. The effect of compounds was analyzed after 24 hours treatment using the concentration of GI50. Histograms represent one of two independent experiments; quantification of cells in apoptosis represents the mean±S.E.M. of two independent experiments.

[7] = test system: HCT116 p53^−/−; assay: SRB growth inhibition assay in HCT116 p53^−/− colon carcinoma cells; format: cell-based, human; settings: 48 hours incubation, mean±S.E.M.
Description: as §1

[8] = test system: HCT116 p53^+/+ cells; assay: apoptosis by flow cytometry (FITC-Annexin V and propidium iodide), HCT116 p53^+/+; format: cell-based, human; settings: GI50 and double GI50, 24 hours
Description: as §2, with “concentration of GI50 and double GI50. Histograms” for “concentration of GI50. Histograms”

[9] = HCT116 p53^+/+ vs HCT116 p53^−/−

T1 sequence (P04637 whole entry): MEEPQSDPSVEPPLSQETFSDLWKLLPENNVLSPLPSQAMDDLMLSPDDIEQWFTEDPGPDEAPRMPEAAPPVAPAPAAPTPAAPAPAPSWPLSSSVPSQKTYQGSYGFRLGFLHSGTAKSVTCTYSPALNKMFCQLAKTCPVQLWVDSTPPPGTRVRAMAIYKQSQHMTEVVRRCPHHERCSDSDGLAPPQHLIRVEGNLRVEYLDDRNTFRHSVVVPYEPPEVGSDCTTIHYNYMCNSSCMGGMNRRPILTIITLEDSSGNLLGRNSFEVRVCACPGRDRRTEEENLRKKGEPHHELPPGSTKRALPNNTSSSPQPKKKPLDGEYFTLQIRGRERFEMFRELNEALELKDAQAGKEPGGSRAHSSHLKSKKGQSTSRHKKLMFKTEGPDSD

SMILES	p53-induced growth inhibition ([1]; yeast expressing human wt p53, 10 μM, 42 hours, vs DMSO only)	p53-induced S-phase cell cycle arrest ([1]; yeast expressing human wt p53, flow cytometry)	actin protein levels ([1]; yeast expressing p53, Western blot, vs DMSO only)	cytotoxic and genotoxic effects (reported) [2]	cell cycle progression [3]	GI50 in HCT116 p53^+/+ cells lower than in HCT116 p53^−/− cells [4, 9]	p53 dependence of anti-proliferative effect [4, 9]	GI50 [4]	GI50 [5]	apoptosis [6]	GI50 [7]	apoptosis [8]
C[C@@]12OC[C@@H](Cc3c[nH]c4ccccc34)N1C(=O)c1ccccc12 [SLMP53-2]	increased	increased	increased the actin protein levels									
COc1ccc(/C=C/c2nc(NCCCN(C)C)c3ccccc3n2)cc1 [CP-31398]				cytotoxic and genotoxic effects have been reported	G0/G1-phase cell arrest	2 fold	p53-dependent anti-proliferative effect	3.4 ± 0.1 µM	2.3 ± 0.9 µM	apoptotic cell death	7.3 ± 0.6 µM	apoptotic cell death
O=C1C2CCN(CC2)C1(CO)CO [PRIMA-1]							p53-independent	19.9 ± 4 µM	29.8 ± 3.1 µM	apoptotic cell death	13.1 ± 2 µM	
